US20250073206A1, “SOLID FORMS OF […] […] USES THEREOF” (Sensorium Therapeutics, Inc., priority 2021, published 2025)
In brackets after ≈: the same amount, converted by molar mass.

Key:
[1] = biological target: sodium-dependent serotonin transporter (SERT) (Homo sapiens, UniProt P31645); settings: naturally occurring, from Sceletium tortuosum; cited from earlier work
[2] = Approximate solubility by visual observation at 25° C.; format: physicochemical; settings: thermodynamic from solid
Description: About 5 mg of batch 1 was weighed into a 2 mL glass vial and aliquots of 20 μL of each solvent were added to get a clear solution. Max. volume of each solvent added was 1 mL.

Chain of sodium-dependent serotonin transporter (SERT) (P31645 whole entry, species assumed): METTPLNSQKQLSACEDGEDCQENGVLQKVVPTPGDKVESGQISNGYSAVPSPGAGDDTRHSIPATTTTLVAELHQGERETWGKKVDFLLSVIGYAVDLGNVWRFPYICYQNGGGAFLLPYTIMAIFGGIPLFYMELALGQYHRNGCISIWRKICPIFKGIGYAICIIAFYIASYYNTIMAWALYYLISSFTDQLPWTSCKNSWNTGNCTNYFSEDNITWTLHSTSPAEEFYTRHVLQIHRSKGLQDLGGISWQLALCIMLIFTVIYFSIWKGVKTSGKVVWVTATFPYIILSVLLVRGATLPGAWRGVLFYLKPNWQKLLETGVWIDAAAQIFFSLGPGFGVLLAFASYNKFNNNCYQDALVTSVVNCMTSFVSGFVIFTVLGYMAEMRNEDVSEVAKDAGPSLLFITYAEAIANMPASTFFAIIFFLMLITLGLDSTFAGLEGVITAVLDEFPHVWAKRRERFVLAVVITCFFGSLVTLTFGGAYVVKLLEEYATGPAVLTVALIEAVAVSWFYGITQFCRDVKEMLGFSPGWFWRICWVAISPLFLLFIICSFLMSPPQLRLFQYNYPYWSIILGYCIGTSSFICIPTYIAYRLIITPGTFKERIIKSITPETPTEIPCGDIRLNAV

Which results are given for COc1ccc([C@@]23CCC(=O)C[C@@H]2N(C)CC3)cc1OC [(−) mesembrine, 3a-(3,4-dimethoxyphenyl)-octahydro-1-methyl-6H-indol-6-one]?
serotonin (5-HT) uptake inhibitory activity [1]: serotonin (5-HT) uptake inhibitory activity; solubility ([2]; organic solvent or mixture, Acetone): 125 to 250 mg/mL (≈ 432 to 864 mM); solubility ([2]; organic solvent or mixture, Acetonitrile): 125 to 250 mg/mL (≈ 432 to 864 mM); solubility ([2]; organic solvent or mixture, Dichloromethane): 125 to 250 mg/mL (≈ 432 to 864 mM); solubility ([2]; organic solvent or mixture, Ethanol): 125 to 250 mg/mL (≈ 432 to 864 mM); solubility ([2]; organic solvent or mixture, Ethyl acetate): 125 to 250 mg/mL (≈ 432 to 864 mM); solubility ([2]; organic solvent or mixture, Methanol): 125 to 250 mg/mL (≈ 432 to 864 mM); solubility ([2]; organic solvent or mixture, Tetrahydrofuran): 125 to 250 mg/mL (≈ 432 to 864 mM); solubility ([2]; organic solvent or mixture, Toluene): 7 to 10 mg/mL (≈ 24.2 to 34.6 mM); solubility ([2]; organic solvent or mixture, t-Butyl methyl ether): 125 to 250 mg/mL (≈ 432 to 864 mM); solubility ([2]; Water): 125 to 250 mg/mL (≈ 432 to 864 mM)
